From US20260200913A1, “ATROPISOMERS OF MAT2A INHIBITORS” (IDEAYA Biosciences, Inc., priority 2022, published 2026) come the findings set out here.

One assay has as its target T1, Human MAT2A (Homo sapiens, UniProt P31153).
T1 construct: Human MAT2A: Cepter, amino acids 1-395 Clone ID 334; purchased Cepter Clone ID 334, lot 00023-148
Kind of assay: Phosphate Sensor Fluorescence Assay (MAT2A enzyme inhibition). It counts as biochemical. The following applies: 5.8 nM MAT2A (1-395), 500 uM L-methionine, 500 uM ATP, 1 hour at room temperature, fluorescence at 450 nm. On the procedure: MAT2A enzyme is incubated with a test compound in DMSO or DMSO and its substrates (L-methionine and ATP) in a microtiter plate. The enzymatic reaction is stopped by the addition of Working Phosphate Sensor Mixture. The plate is analyzed for fluorescence at 450 nm. The high control (DMSO with enzyme and its substrates) gives high fluorescence which represents no inhibition of enzymatic activity while the low control (DMSO with MAT2A substrates and no enzyme) gives low fluorescence which represents full inhibition of enzymatic activity. […]
For the assay, a mixture of 1 mM L-methionine/1 mM ATP (2× final pre-stopped concentration) in assay buffer: MAT2A (2× final pre-stopped concentration) in Assay Buffer and Working Phosphate Sensor Mixture (1.5 uM Phosphate Sensor/30 mM EDTA in Assay Buffer, which is 3× final concentrations) were prepared. […] The plate was read for fluorescence at 450 nm after exciting at 430 nm on a Tecan Spark microplate reader.
Percent inhibition was calculated in Chemical and Biological Information System (CBIS), (ChemInnovation Software Inc.). […]

The next assay relates to HCT116 MTAP null cells. In words: HCT116 MTAP-Null Cell Line Viability. It counts as cell-based. The following applies: final count 4-5 days post treatment (IncuCyte, GFP), normalized to DMSO wells. As to the method:
Preparation: HCT116 WT and MTAP null cells were cultured in DMEM/F12+10% FBS at 37° C. Left the media, dissociation reagent, and PBS in room temperature at least 1 hr prior to start.
Process: Washed cells with 5 mL of PBS, aspirate the PBS. Added 1 mL of dissociation reagent (Trypsin, Gibco #25200114) and left at room temperature for 2-5 mins. When cells were detached, added 5 ml of fresh media. Cells were collected into a 10 mL tube and centrifuged at 1000 rpm for 5 minutes at room temperature. Aspirated media, resuspended in 5 mL fresh media, and counted on Bio-Rad TC20 Cell Counter. Based on the count and the table below, added cells to a clear flat bottom, TC-treated 384-well plate (Corning #3764).
Treated the cells the next day post splitting. Used a 10 mM stock of compound.
Process: Compound treatment was applied to cells using a Tecan D300e digital dispenser with a high concentration 20 micromolar and 3-fold serial dilutions over 9 concentrations in triplicate on a 384-well plate.
4-5 days post treatment, used a Live-Cell Analysis System (IncuCyte®) suitable for reading GFP to do a final count. Raw data were normalized based on the average value of the DMSO wells on each plate.

T1 sequence (P31153 whole entry, the tested form may be a part): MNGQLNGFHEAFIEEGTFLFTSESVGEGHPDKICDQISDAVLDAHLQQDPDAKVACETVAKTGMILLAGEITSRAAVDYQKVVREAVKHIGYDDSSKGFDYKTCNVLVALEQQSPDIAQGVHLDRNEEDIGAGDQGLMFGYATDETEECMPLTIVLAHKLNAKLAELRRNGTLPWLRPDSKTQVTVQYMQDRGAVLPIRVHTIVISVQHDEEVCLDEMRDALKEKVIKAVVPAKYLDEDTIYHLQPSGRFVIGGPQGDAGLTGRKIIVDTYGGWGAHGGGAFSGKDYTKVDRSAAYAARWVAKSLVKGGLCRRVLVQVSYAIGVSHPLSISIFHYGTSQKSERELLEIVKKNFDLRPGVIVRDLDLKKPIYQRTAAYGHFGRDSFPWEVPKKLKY

Take `Nc1nc(=O)n(-c2ccccc2Cl)c2nc(C(F)(F)F)ccc12` (atropisomer, axis not shown) [Atropisomer Ib]: the IC50 (as a rule, the midpoint of a concentration-inhibition curve) against Human MAT2A turned out to be 60 nM. Also, in the assay on HCT116 MTAP null cells, the concentration giving a half-maximal response (EC50) – broadly, the concentration giving half of the maximal effect – is 149 nM.
For `Nc1nc(=O)n(-c2ccccc2Cl)c2nc(C(F)(F)F)ccc12` (single isomer, unassigned) [Atropisomer Ia], in that order: 3 nM and 20 nM.
